According to ChEMBL document CHEMBL1201862, “PubChem BioAssay data set” (2004):
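1) Cells in 96-well plates. 2) Compound, 48 h, 5 concentrations. 3) Linear interpolation between surrounding doses. 4) Unreached endpoint = highest concentration. The concentration for 50% growth inhibition is given as GI50.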 The source made the active and inactive calls. No stated cut-off is given here; in the data, active = GI50 up to about 1.1 µM and inactive = higher.

How the values were obtained:
Test in all cases: growth of human tumour cells (NCI), 48 h
[1] = tested on: NCI-H460
[2] = tested on: U-251
[3] = tested on: SF-539
[4] = tested on: TK-10
[5] = tested on: RPMI-8226
[6] = tested on: K562
[7] = tested on: SK-OV-3
[8] = tested on: LOX IMVI
[9] = tested on: SK-MEL-5
[10] = tested on: Malme-3M
[11] = tested on: CCRF-CEM
[12] = tested on: NCI-H522
[13] = tested on: DU-145
[14] = tested on: OVCAR-5
[15] = tested on: Hs-578T
[16] = tested on: SR
[17] = tested on: HOP-62
[18] = tested on: UACC-62
[19] = tested on: OVCAR-4
[20] = tested on: MDA-N

SMILES: CCCCC(=O)Nc1ccc2cc(C(=O)OC)c(Cl)nc2n1
- GI50 [1]: 44.2 µM (inactive)
- GI50 [2]: 28.6 µM (inactive)
- GI50 [3]: > 100 µM (inactive)
- GI50 [4]: > 71.3 µM (inactive)
- GI50 [5]: 9.75 µM (inactive)
- GI50 [6]: > 100 µM (inactive)
- GI50 [7]: > 100 µM (inactive)
- GI50 [8]: > 100 µM (inactive)
- GI50 [9]: > 90.8 µM (inactive)
- GI50 [10]: > 100 µM (inactive)
- GI50 [11]: > 100 µM (inactive)
- GI50 [12]: > 100 µM (inactive)
- GI50 [13]: 3.11 µM (inactive)
- GI50 [14]: > 100 µM (inactive)
- GI50 [15]: 4.7 µM (inactive)
- GI50 [16]: > 100 µM (inactive)
- GI50 [17]: 7.11 µM (inactive)
- GI50 [18]: > 100 µM (inactive)
- GI50 [19]: > 100 µM (inactive)
- GI50 [20]: > 100 µM (inactive)

SMILES: O=C1C(c2c(O)[nH]c3ccc(I)cc23)=Nc2ccccc21
- GI50 [1]: 10.4 µM (inactive)
- GI50 [2]: 2.87 µM (inactive)
- GI50 [3]: 5.27 µM (inactive)
- GI50 [4]: 4.54 µM (inactive)
- GI50 [5]: 9.51 µM (inactive)
- GI50 [6]: 9.66 µM (inactive)
- GI50 [7]: 3.97 µM (inactive)
- GI50 [8]: 4.88 µM (inactive)
- GI50 [9]: 2.57 µM (inactive)
- GI50 [10]: 8.17 µM (inactive)
- GI50 [11]: 39.6 µM (inactive)
- GI50 [12]: 4.2 µM (inactive)
- GI50 [13]: 4.74 µM (inactive)
- GI50 [14]: 11.8 µM (inactive)
- GI50 [15]: 6.78 µM (inactive)
- GI50 [16]: 10.8 µM (inactive)
- GI50 [17]: 4.7 µM (inactive)
- GI50 [18]: 4.66 µM (inactive)
- GI50 [19]: 4.06 µM (inactive)
- GI50 [20]: 6.68 µM (inactive)

SMILES: COc1ccc(N(CC(=O)O)N=O)cc1
- GI50 [1]: > 100 µM (inactive)
- GI50 [2]: > 100 µM (inactive)
- GI50 [3]: > 100 µM (inactive)
- GI50 [4]: > 100 µM (inactive)
- GI50 [5]: > 100 µM (inactive)
- GI50 [6]: > 100 µM (inactive)
- GI50 [7]: > 100 µM (inactive)
- GI50 [8]: > 100 µM (inactive)
- GI50 [9]: > 100 µM (inactive)
- GI50 [10]: > 100 µM (inactive)
- GI50 [11]: > 100 µM (inactive)
- GI50 [12]: > 100 µM (inactive)
- GI50 [13]: > 100 µM (inactive)
- GI50 [14]: > 100 µM (inactive)
- GI50 [15]: > 100 µM (inactive)
- GI50 [16]: > 100 µM (inactive)
- GI50 [17]: > 100 µM (inactive)
- GI50 [18]: > 100 µM (inactive)
- GI50 [19]: > 100 µM (inactive)
- GI50 [20]: > 100 µM (inactive)

SMILES: CC(C)(C)N1CSC(=S)N(Cc2ccco2)C1
- GI50 [1]: 5.89 µM (inactive)
- GI50 [2]: 3.72 µM (inactive)
- GI50 [3]: 0.708 µM (active)
- GI50 [4]: 3.04 µM (inactive)
- GI50 [5]: 0.177 µM (active)
- GI50 [6]: 1.85 µM (inactive)
- GI50 [7]: 5.75 µM (inactive)
- GI50 [8]: 3.05 µM (inactive)
- GI50 [9]: 3.61 µM (inactive)
- GI50 [10]: 4.16 µM (inactive)
- GI50 [11]: 1.08 µM (active)
- GI50 [12]: 3.27 µM (inactive)
- GI50 [13]: 3.85 µM (inactive)
- GI50 [14]: 3.1 µM (inactive)
- GI50 [15]: 4.78 µM (inactive)
- GI50 [16]: 0.555 µM (active)
- GI50 [17]: 4.8 µM (inactive)
- GI50 [18]: 7.05 µM (inactive)
- GI50 [19]: 12.1 µM (inactive)
- GI50 [20]: 2.85 µM (inactive)

SMILES: O=C1/C(=C(/Br)I)c2ccccc2-c2ccccc21
- GI50 [1]: 17.8 µM (inactive)
- GI50 [2]: 12.6 µM (inactive)
- GI50 [3]: 14.6 µM (inactive)
- GI50 [4]: 8.97 µM (inactive)
- GI50 [5]: 2.97 µM (inactive)
- GI50 [6]: 2.36 µM (inactive)
- GI50 [7]: 15.7 µM (inactive)
- GI50 [8]: 5.3 µM (inactive)
- GI50 [9]: 16 µM (inactive)
- GI50 [10]: 3.56 µM (inactive)
- GI50 [11]: 2.16 µM (inactive)
- GI50 [12]: 2.09 µM (inactive)
- GI50 [13]: 16.3 µM (inactive)
- GI50 [14]: 11.9 µM (inactive)
- GI50 [15]: 28.6 µM (inactive)
- GI50 [16]: 2.92 µM (inactive)
- GI50 [17]: 17.1 µM (inactive)
- GI50 [18]: 7.19 µM (inactive)
- GI50 [19]: 14.7 µM (inactive)
- GI50 [20]: 2.95 µM (inactive)

SMILES: C[C@]12CCC3C4=C(CCC3C1CCC2=O)C(=O)[C@H]1O[C@H]1C4=O (stereo not given in full)
- GI50 [1]: 7.46 µM (inactive)
- GI50 [2]: 2.75 µM (inactive)
- GI50 [3]: 1.92 µM (inactive)
- GI50 [4]: 3.35 µM (inactive)
- GI50 [5]: 0.641 µM (active)
- GI50 [6]: 1.29 µM (inactive)
- GI50 [7]: 13.9 µM (inactive)
- GI50 [8]: 1.89 µM (inactive)
- GI50 [9]: 10 µM (inactive)
- GI50 [10]: 21.6 µM (inactive)
- GI50 [11]: 1.12 µM (inactive)
- GI50 [12]: 1.84 µM (inactive)
- GI50 [13]: 3.12 µM (inactive)
- GI50 [14]: 3.77 µM (inactive)
- GI50 [15]: 9.51 µM (inactive)
- GI50 [16]: 0.538 µM (active)
- GI50 [17]: 3.27 µM (inactive)
- GI50 [18]: 2.94 µM (inactive)
- GI50 [19]: 3.05 µM (inactive)
- GI50 [20]: 7.18 µM (inactive)
